Measurements taken from US20230139328A1, “DOSAGE FORMS FOR IMPROVING ORGAN TRANSPLANTATION, GRAFT VERSUS HOST DISEASE AND STEM CELLS TRANSPLANTS” (Aphios Corporation, priority 2020, published 2023).
“Also recorded” adds a separate entry of the source.

Legend:
[1] = tested on: neutrophil migration; assay: Neutrophil migration induced by 24 h TNF-α pretreatment combined with a 100 nM LTB4 gradient; type: cell-based, human; conditions: 24 h TNF-α pretreatment and 100 nM LTB4 gradient; data not shown
Description: Migration Assays: At confluency HMECs were treated for 1 h at 37° C. with Bryostatin-1 (10 nM, 100 nM) in MCDB-131 media or MCDB-131 media alone. Inserts were washed three times with Hank's Balanced Salt Solution (HBSS) (to eliminate drug effects on the neutrophils) and placed in a new plate containing either 500 μL 100 nM LTB4, or HBSS alone for control. 500 μL HBSS was then added to the top well and spiked with 500,000 neutrophils. For TNF-α experiments, HMECs were left in 20 ng/ml TNF-α in MCDB-131 for 24 h TNF-α was removed and HMECs washed three times. HMECs were treated for 1 h with Bryostatin-1 in endothelial growth medium (EGM) (10 nM, 100 nM). The drug was removed, and cells were washed three times. […] Neutrophils were allowed to migrate for 3 h at 37° C. Migration was stopped by removing the inserts and migration was measured using the myeloperoxidase (MPO) assay.
Myeloperoxidase Assay: Neutrophil migration was measured using myeloperoxidase (MPO) analysis. […] The supernatant was removed, and MPO activity was measured using TMB/peroxide as chromogen. The reaction was stopped with sulfuric acid and absorbance was read at 450 nm using a microplate reader. […] Data was expressed as “% neutrophil migration”, which allowed cumulative statistical analysis to be done and account for unpreventable batch-to-batch variations.

[2] = tested on: neutrophil adhesion to the endothelial monolayer; assay: LTB4 induced neutrophil adhesion to the endothelial monolayer; type: cell-based, human; conditions: data not shown
Description: Turning now to FIG. 1, FIG. 1 graphically depicts neutrophil adhesion to and migration through human microvascular endothelial cell monolayers (HMECs) in a two-compartment system upon administration of an LTB4 gradient in the lower chamber over time. HMECs were plated on porous 8 μm (micron) transwell two-chamber inserts and allowed to reach confluency for migration assays. For the adhesion assay, HMECs were plated on 48-well plates. 100 nM LTB4 and 500,000 neutrophils were added to the upper compartment to initiate adhesion, while 500,000 neutrophils were added to the upper compartment and LTB4 to the lower compartment to initiate migration. Both neutrophil adhesion and migration were measured over 3 h and expressed as % change in adhesion and the fraction of migrated cells in chemoattractant stimulated experiments vs. controls which had no chemoattractant added. […]
Confluent HMEC monolayers were plated on 48-well plates for adhesion studies, transwells for migration studies, and pretreated with a variety of pharmacological inhibitors and activators for 1 hour. […] For adhesion assays, LTB4 was added along with 500,000 neutrophils and allowed to adhere for 1 h (time of max, adhesion as determined in FIG. 1). […] The data are shown as % change in migration and adhesion as assessed by MPO assay. All values are expressed as means+SE. […]

[3] = tested on: PKC-ε siRNA nucleofected HUVEC; assay: LTB4 mediated neutrophil migration across PKC-ε siRNA nucleofected HUVEC; type: cell-based, human; conditions: 1 h pretreatment; PKC-ε knockdown
Description: Because studies in FIG. 8 could not discriminate between PKC-δ and […] isoforms mediating the effect of Bryostatin-1, we knocked down individual isoforms using siRNA technology. In order to verify that we could knock down particular isoforms of PKC, specifically PKC-8 and PKC-ε isoforms in HUVEC, siRNA which selectively bind to and eliminate human PKC-8 and PKC-ε mRNAs were nucleofected into HUVEC prior to migration studies. […] HUVEC cells treated using these approaches were then subjected to chemotaxis studies with Bryostatin-1 to elucidate the mechanism of Bryostatin-1 mediated inhibition of LTB4 induced PMN migration.
Neutrophil Transendothelial Migration (TEM) Restoration Studies: HUVECs were pretreated with Go-6983 (1, 10, 100 nM), or Go-6976 (1, 10,100 nM) for 30 minutes, then spiked with 100 nM Bryostatin-1 for 1 hour. […] Migration was stopped by removing the inserts and migration was measured using the MPO assay.
Myeloperoxidase Assay: Neutrophil migration was measured using myeloperoxidase (MPO) analysis. […] The supernatant was removed, and MPO activity was measured using TMB/peroxide as chromogen. The reaction was stopped with sulfuric acid and absorbance was read at 450 nm using a microplate reader. […] Data was expressed as “% neutrophil migration”, which allowed cumulative statistical analysis to be done and account for unpreventable batch-to-batch variations. […]

[4] = tested on: HMEC; assay: Alamar blue endothelial viability assay, HMEC; type: cell-based, human; conditions: single 1 h 100 nM treatment; 1, 24, 48 h
Description: (§1) Viability Assay. The Alamar blue assay was used to determine endothelial viability after pharmacological intervention. Alamar blue contains a REDOX indicator that results in a color change upon chemical reduction by cellular metabolic activity. Endothelial cells were treated with Bryostatin-1 (100 nM) for 1 h and washed three times with HBSS. Alamar blue (10%) in media was added for 2.5 h at T=0, 24, or 48 hours after drug treatment and the ratio of absorbances (570-600 nm) was measured to determine metabolic activity.

[5] = tested on: HUVEC; assay: Alamar blue endothelial viability assay, HUVEC; type: cell-based, human; conditions: for HUVEC viability at 48 h: 48 h after a single 1 h 100 nM treatment; for HUVEC viability at 1 and 24 h: single 1 h 100 nM treatment, 1, 24 h
Description: as §1

[6] = cited from earlier work

With `CCCCCCCCCCCCCC(=O)O[C@@H]1[C@@H](C)[C@@]2(O)[C@@H](C=C(CO)C[C@]3(O)C(=O)C(C)=C[C@@H]23)[C@@H]2C(C)(C)[C@]12OC(C)=O` [PMA, phorbol myristate acetate] the “effect on migration induced by TNF-α pretreatment plus LTB4 gradient” value [1] was “reduced migration”, the “effect on LTB4 induced adhesion to the endothelial monolayer” value [2] was “Neither PMA, nor Bryostatin-1 reduced LTB4 induced adhesion” and the “effect on LTB4 mediated neutrophil migration in PKC-ε siRNA nucleofected HUVEC” value [3] was “did not restore LTB4 induced migration”. For the same molecule, the HMEC viability [4] was “no effect”, the “HUVEC viability at 48 h” value [5] was “slight but significant reduction in viability” and the “HUVEC viability at 1 and 24 h” value [5] was “no effect”.

With `CCC/C=C/C=C/C(=O)O[C@H]1/C(=C/C(=O)OC)C[C@H]2C[C@H]([C@@H](C)O)OC(=O)C[C@H](O)C[C@@H]3C[C@H](OC(C)=O)C(C)(C)[C@](O)(C[C@@H]4C/C(=C/C(=O)OC)C[C@H](/C=C/C(C)(C)[C@]1(O)O2)O4)O3` [Bryostatin-1] the “effect on migration induced by TNF-α pretreatment plus LTB4 gradient” value [1] was “reduced migration”, the “effect on LTB4 induced adhesion to the endothelial monolayer” value [2] was “Neither PMA, nor Bryostatin-1 reduced LTB4 induced adhesion” and the “effect on LTB4 mediated neutrophil migration in PKC-ε siRNA nucleofected HUVEC” value [3] was “did not restore LTB4 induced migration; also recorded: still suppresses migration”. The HMEC viability [4] was “no effect”, the “HUVEC viability at 48 h” value [5] was “no effect” and the “HUVEC viability at 1 and 24 h” value [5] was “no effect”. For the same molecule, the “major side effects associated with use” value ([6]; Phase II trials, combination with other drugs, cancers) was “myalgias, nausea, and vomiting”, the “cardiovascular disturbances or edema” value ([6]; clinical use) was “no cardiovascular disturbances or evidence of edema have been observed” and the “adverse effects at dosing ranges higher than 100 ng/ml plasma level” value ([6]; healthy subjects and cancer patients) was “no adverse effects”.
